In ChEMBL document CHEMBL2375291, “Discovery of a series of novel 5H-pyrrolo[2,3-b]pyrazine-2-phenyl ethers, as potent JAK3 kinase inhibitors” (Bioorg Med Chem Lett, 2013):
pIC50: −log10 of the molar value.

These molecules were tested against T1, Tyrosine-protein kinase JAK3 (Homo sapiens, UniProt P52333).
T1 sequence (P52333 whole entry): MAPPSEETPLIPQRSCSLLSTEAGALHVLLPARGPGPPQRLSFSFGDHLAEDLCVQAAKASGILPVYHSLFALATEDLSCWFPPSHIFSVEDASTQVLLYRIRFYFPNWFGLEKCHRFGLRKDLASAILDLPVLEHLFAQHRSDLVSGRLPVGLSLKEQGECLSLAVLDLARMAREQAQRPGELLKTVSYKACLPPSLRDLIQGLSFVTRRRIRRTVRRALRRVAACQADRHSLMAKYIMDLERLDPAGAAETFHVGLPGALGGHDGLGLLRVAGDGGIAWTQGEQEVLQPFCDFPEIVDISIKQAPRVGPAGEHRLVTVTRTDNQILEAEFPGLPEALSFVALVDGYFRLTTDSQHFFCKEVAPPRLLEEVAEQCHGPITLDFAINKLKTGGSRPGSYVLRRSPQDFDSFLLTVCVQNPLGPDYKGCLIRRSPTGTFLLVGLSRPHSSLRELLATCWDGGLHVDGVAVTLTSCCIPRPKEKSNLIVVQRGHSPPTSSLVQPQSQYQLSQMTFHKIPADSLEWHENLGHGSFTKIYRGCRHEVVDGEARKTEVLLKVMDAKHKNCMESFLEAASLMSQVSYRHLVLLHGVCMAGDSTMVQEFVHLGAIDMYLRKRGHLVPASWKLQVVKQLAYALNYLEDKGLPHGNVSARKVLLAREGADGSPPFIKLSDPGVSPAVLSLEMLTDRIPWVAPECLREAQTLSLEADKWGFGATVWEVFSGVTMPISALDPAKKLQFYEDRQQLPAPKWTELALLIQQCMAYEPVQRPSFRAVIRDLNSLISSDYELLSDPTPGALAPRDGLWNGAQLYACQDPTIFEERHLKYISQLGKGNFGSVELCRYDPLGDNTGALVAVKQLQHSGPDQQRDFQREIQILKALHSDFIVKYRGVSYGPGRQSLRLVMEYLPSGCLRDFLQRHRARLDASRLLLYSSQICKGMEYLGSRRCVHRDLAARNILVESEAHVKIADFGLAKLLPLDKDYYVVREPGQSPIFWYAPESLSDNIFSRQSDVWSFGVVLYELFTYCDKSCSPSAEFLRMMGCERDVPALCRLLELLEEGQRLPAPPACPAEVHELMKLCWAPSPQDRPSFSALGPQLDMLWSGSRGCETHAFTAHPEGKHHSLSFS

Row | pIC50 | Structure (SMILES)
1 | 6.95 | CC(=O)N[C@@H]1CCc2ccc(Oc3cnc4[nH]cc(C(=O)N[C@H](C)C(=O)N5CC(C#N)C5)c4n3)cc21
2 | 8.30 | CC(=O)N[C@@H]1CCc2ccc(Oc3cnc4[nH]cc(C(=O)N[C@@H](C(=O)N5CC(C#N)C5)C5CC5)c4n3)cc21

What follows are molecules tested against Tyrosine-protein kinase JAK1 (Homo sapiens, UniProt P23458).

Row | pIC50 | Structure (SMILES)
3 | 6.08 | CC(C)NC(=O)c1c[nH]c2ncc(Oc3ccccc3)nc12
4 | 5.67 | Cc1cccc(Oc2cnc3[nH]cc(C(=O)NC(C)C)c3n2)c1
5 | 5.38 | CCc1cccc(Oc2cnc3[nH]cc(C(=O)NC(C)C)c3n2)c1
6 | 5.09 | COc1cc(OC)cc(Oc2cnc3[nH]cc(C(=O)NC(C)C)c3n2)c1
7 | 5.50 | CC(C)NC(=O)c1c[nH]c2ncc(Oc3cccc(C#N)c3)nc12
8 | 5.46 | CC(C)NC(=O)c1c[nH]c2ncc(Oc3ccc(C#N)cc3)nc12
9 | 5.29 | Cc1ccccc1Oc1cnc2[nH]cc(C(=O)NC(C)C)c2n1
10 | 6.66 | CC(NC(=O)c1c[nH]c2ncc(Oc3ccccc3)nc12)C1CC1 (stereo not drawn)
11 | 5.48 | CC(C)NC(=O)c1c[nH]c2ncc(Oc3ccc4c(c3)CCC4)nc12
12 | 5.36 | CC(=O)N[C@H]1CCc2ccc(Oc3cnc4[nH]cc(C(=O)NC(C)C)c4n3)cc21
13 | 5.20 | CC(=O)N[C@@H]1CCc2ccc(Oc3cnc4[nH]cc(C(=O)NC(C)C)c4n3)cc21
14 | 6.06 | CC(=O)N[C@@H]1CCc2ccc(Oc3cnc4[nH]cc(C(=O)N[C@@H](C)C5CC5)c4n3)cc21
15 | 5.68 | CC(=O)N[C@@H]1CCc2ccc(Oc3cnc4[nH]cc(C(=O)N[C@H](C)C5CC5)c4n3)cc21
16 | 4.94 | CC(=O)N[C@@H]1CCc2ccc(Oc3cnc4[nH]cc(C(=O)N[C@H](C)C(=O)N5CC(C#N)C5)c4n3)cc21
17 | 6.58 | CC(=O)N[C@@H]1CCc2ccc(Oc3cnc4[nH]cc(C(=O)N[C@@H](C(=O)N5CC(C#N)C5)C5CC5)c4n3)cc21
18 | 6.06 | CC(=O)N[C@@H]1CCc2ccc(Oc3cnc4[nH]cc(C(=O)N[C@@H](C(=O)N5CC(C#N)C5)C(C)(C)C)c4n3)cc21
